From patent publication US7214669B2, “Tetracycline derivatives and methods of use thereof” (Tetragenex Pharmaceuticals, Inc., priority 2001, dated 2007)
Where “and” joins values, the source holds several entries; their conditions need not be identical. Identical values can stand only once.

Experiments:
Human recombinant MMP1 = target: T1, Human recombinant MMP1 (Homo sapiens, UniProt P03956); experiment: MMP1 (Collagenase-1) inhibition, 14C collagen release; format: biochemical; settings: 35° C., 5 hours; read-out: MMP-1 inhibitory activity, IC50
T1 sequence (P03956 100-469): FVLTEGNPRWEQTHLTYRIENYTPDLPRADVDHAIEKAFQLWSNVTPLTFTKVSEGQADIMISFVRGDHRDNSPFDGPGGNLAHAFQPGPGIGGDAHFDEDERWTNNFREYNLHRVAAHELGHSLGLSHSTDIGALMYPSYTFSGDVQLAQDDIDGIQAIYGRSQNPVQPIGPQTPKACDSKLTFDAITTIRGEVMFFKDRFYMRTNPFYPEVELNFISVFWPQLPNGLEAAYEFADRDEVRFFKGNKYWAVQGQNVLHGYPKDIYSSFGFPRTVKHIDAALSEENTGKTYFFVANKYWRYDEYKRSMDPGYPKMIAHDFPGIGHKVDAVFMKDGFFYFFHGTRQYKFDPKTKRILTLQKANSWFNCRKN

MMP2 (Gelatinase A) = target: T2, MMP2 (Gelatinase A) (Homo sapiens, UniProt P08253); experiment: MMP2 (Gelatinase A) inhibition, 14C gelatin release; format: biochemical; settings: 37° C., 16 hours; read-out: MMP-2 inhibitory activity, IC50
T2 sequence (P08253 110-660): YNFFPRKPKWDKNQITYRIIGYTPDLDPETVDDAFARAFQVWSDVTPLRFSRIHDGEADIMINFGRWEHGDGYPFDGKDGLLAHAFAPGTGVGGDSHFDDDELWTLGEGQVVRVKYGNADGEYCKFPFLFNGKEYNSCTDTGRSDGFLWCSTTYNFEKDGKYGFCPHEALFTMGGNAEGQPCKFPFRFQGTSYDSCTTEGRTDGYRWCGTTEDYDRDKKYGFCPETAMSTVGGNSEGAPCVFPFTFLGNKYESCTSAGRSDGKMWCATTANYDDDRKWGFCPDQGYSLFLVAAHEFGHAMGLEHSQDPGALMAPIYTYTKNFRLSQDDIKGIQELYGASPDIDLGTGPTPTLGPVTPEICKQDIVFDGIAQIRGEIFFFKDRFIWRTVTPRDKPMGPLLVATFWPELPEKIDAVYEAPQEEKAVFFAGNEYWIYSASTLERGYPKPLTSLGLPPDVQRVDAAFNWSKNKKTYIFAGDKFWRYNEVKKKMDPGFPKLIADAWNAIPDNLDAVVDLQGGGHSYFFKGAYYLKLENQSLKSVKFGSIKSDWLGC
Description: Protocol for Measuring MMP2 (Gelatinase A) Inhibition
MMP2 activity was determined by the release of trichloracetic acid, TCA, soluble fragments from ^14C acetylated rat skin type I gelatin (Methods in Enzymology 248, 470, 1995. Biochem. J. 195, 1981)
• 100 μg ^14C labelled gelatin (type I collagen denatured 60° C. 20 min) • 50 mM Tris HCl pH 7.9 • 15 mM CaCl2, 0.02% azide • Human recombinant MMP1, 0.1–0.5 nM • ±Tetracycline (up to 1 MM) in a total volume of 250 μl.
Incubations were set at 37° C. for 16 hours. The reaction was stopped by cooling the incubations and addition of 50 μl cold 90% (w/v) trichloracetic acid with careful mixing. TCA precipitation was allowed to proceed for 15 minutes at 4° C. prior to cetrifugation at 10,000 g for 10 minutes at 4° C. 200 μl of the TCA supernatant was taken for the determination of radioactive content by scintillation counting (Packard Opti Phase Supermix scintillation fluid). Only data derived from within the linear part of the assay (10–70% lysis) were utilized. The percentage inhibition of MMP2 by each tetracycline concentration was plotted to derive the IC50 value, using linear regression analysis.

Human recombinant MMP3 = Human recombinant MMP3 (Homo sapiens, UniProt P08254); experiment: MMP3 (Stromelysin 1) inhibition, 14C casein release; format: biochemical; settings: 37° C., 16 hours; read-out: MMP-3 inhibitory activity, IC50
Human recombinant MMP3, sequence (P08254 100-477): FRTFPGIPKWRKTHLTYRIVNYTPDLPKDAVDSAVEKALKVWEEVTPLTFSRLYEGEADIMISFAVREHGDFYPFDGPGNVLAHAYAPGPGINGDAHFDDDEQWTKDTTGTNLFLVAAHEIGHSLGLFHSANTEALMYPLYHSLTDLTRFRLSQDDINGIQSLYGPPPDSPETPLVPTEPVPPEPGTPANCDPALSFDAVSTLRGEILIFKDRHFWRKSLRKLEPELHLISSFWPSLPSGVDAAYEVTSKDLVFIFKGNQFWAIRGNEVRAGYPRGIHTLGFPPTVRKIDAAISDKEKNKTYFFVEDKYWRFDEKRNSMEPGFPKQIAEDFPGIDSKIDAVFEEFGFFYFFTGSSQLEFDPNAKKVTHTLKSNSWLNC

Human recombinant MMP9 = Human recombinant MMP9 (Homo sapiens, UniProt P14780); experiment: MMP9 (Gelatinase B) inhibition, 14C gelatin release; format: biochemical; settings: 37° C., 16 hours; read-out: MMP-9 inhibitory activity, IC50
Human recombinant MMP9, sequence (P14780 94-707): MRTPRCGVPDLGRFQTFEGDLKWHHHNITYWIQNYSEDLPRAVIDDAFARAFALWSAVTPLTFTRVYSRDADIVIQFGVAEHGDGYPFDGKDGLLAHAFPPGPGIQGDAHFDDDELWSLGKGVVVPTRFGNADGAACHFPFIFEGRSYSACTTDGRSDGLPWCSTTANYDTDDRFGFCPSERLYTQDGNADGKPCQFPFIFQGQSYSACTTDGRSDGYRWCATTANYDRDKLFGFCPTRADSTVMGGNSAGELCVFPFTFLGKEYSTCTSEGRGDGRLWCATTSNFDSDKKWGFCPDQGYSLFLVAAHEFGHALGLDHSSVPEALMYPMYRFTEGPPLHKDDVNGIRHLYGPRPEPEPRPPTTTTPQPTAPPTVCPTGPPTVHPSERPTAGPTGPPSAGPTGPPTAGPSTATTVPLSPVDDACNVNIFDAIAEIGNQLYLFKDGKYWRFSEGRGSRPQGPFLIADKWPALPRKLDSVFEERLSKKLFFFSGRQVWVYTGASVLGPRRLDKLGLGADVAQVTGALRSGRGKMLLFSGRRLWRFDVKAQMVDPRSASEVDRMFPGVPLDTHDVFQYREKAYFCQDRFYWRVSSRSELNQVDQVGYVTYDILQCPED
Description: Protocol for Measuring MMP9 (Gelatinase B) Inhibition
MMP9 activity was determined by the release of trichloracetic acid, TCA soluble fragments from ^14C acetylated rat skin type I (Methods in Enzymology 248, 470, 1995. Biochem. J. 195, 1981)
• 100 μg ^14C labelled gelatin (collagen denatured 60° C. 20 min) • 50 mM Tris HCl pH 7.9 • 15 mM CaCl2, 0.02% azide • Human recombinant MMP9, 1.2–2 nM • ±Tetracycline (up to 1 mM) in a total volume of 250 μl.
Incubations were at 37° C. for 16 hours. The incubations were stopped by cooling the incubations and addition of 50 μl cold 90% (w/v) trichloracetic acid with careful mixing. TCA precipitation was allowed to proceed for 15 minutes at 4° C. prior to centrifugation at 10,000 g for 10 minutes at 4° C. 200 μl of the TCA supernatant was taken for the determination of radioactive content by scintillation counting (Packard Opti Phase Supermix scintillation fluid). Only data derived from within the linear part of the assay (10–70% lysis) were utilized. The percentage inhibition of MMP9 by each tetracycline concentration were plotted to derive the IC50 value.

Human recombinant MMP14 = Human recombinant MMP14 (Homo sapiens, UniProt P50281); experiment: MMP14 (MTI-MMP) inhibition, 14C collagen release; format: biochemical; settings: 35° C., 15 hours; read-out: MMP-14 inhibitory activity, IC50
[1] = tested on: C8161 human melanoma cells; experiment: Membrane Invasion Culture System (MICS) chemo-invasion assay; format: cell-based; settings: 24 hours, + = increased invasiveness
Description: (§1) Another objective was to analyze the effects of specific, tetracycline derived compounds on the in-vitro chemo-invasive potential of: • C8161 human melanoma cells • MDA-MB-231 human breast cancer cells • PC3 human prostate cancer cells • RPM18226 human myeloma cancer cells • Ark human myeloma cancer cells • Arp-1 human myeloma cancer cells
(§2) The Membrane Invasion Culture System (MICS) in vitro chemo-invasion assay was chosen to measure changes in the invasive potential of specific human cancer cells in response to tetracycline derived compounds. Stock solutions of each compound were hydrated in water containing 2% DMSO and pH 10.0. Upon solubilization, HCl was added to the solution to establish a pH of 7.5–8.0. This solution was then wrapped in foil and kept at 4° C. during the 24 hours of assay. Fresh compound was prepared for each assay. The in vitro chemoinvasion analyses for tumor cell invasiveness are performed using the Membrane Invasion Culture System (MICS) as previously described.
(§3) The MICS system is a thermally treated plastic manifold system consisting of two matched sets of plates containing fourteen wells, 13 mm in diameter. Interposed between these plates was a polycarbonate filter containing 10 μm pores and coated with a defined matrix composed of human laminin/collagen IV/gelatin that formed a 35 μm thick barrier between the top and bottom sections of the wells in MICS. Prior to placing this barrier in place, the lower wells were filled with serum-free RPMI culture medium made 50% in conditioned medium obtained from 2-day-old cultures of human fibroblasts which had been cleared of cells and cellular debris by either centrifugation, or filtering through a 0.45 μm sterile filter. The barrier was then placed on the lower wells and fresh serum-free medium added to the upper wells after assembly of the system. Fifty thousand tumor cells were then added to the wells either in the presence of the compound, or the DMSO vehicle (the controls). Of the 12 assay wells on each manifold, 3 randomized wells acted as controls, 3 wells received 1 μg/ml of compound, 3 received 10 μg/ml and 3 received 25 μg/ml. After 24 hours, cells and media were removed from the lower wells and replaced by phosphate buffered saline plus 2 mM EDTA. This solution was used to remove all cells from the lower well, and this wash was added to the recovered cells plus medium from the same well. These samples were then collected onto a polylysine containing polycarbonate membrane containing 3 μm pores using a Dot-Blot manifold system. These collection filters were then fixed in methanol, and stained using Wright's stain (Leukostat staining kit) in situ. The filters were then mounted on microscope slides with microscope immersion oil (which reduced the light refraction from the pores) and 5 microscopic fields were counted to calculate the number of cells which invaded through the membrane over the 24 hour period. These numbers were then statistically analyzed as discussed below.

[2] = tested on: MDA-MB-231 human breast cancer cells; experiment: as above; format: cell-based; settings: 24 hours, + = increased invasiveness
Description: as §1, §2, §3

[3] = tested on: PC-3 ML human prostate cancer cells; experiment: as above; format: cell-based; settings: 24 hours, + = increased invasiveness
Description: as §1, §2, §3

[4] = tested on: RPMI-8226 human myeloma cancer cells; experiment: as above; format: cell-based; settings: 24 hours, + = increased invasiveness
Description: as §1, §2, §3

Structure (SMILES) | IC50 (Human recombinant MMP1) | IC50 (MMP2 (Gelatinase A)) | IC50 (Human recombinant MMP3) | IC50 (Human recombinant MMP9) | IC50 (Human recombinant MMP14) | percent inhibition, C8161 (Melanoma) ([1]; 1 ug/mL) | percent inhibition, C8161 (Melanoma) ([1]; 10 ug/mL) | percent inhibition, C8161 (Melanoma) ([1]; 25 ug/mL) | percent inhibition, MDA-MB-231 (Breast) ([2]; 1 ug/mL) | percent inhibition, MDA-MB-231 (Breast) ([2]; 10 ug/mL) | percent inhibition, MDA-MB-231 (Breast) ([2]; 25 ug/mL) | percent inhibition, PC-3 ML (Prostrate) ([3]; 1 ug/mL) | percent inhibition, PC-3 ML (Prostrate) ([3]; 10 ug/mL) | percent inhibition, PC-3 ML (Prostrate) ([3]; 25 ug/mL) | percent inhibition, RPMI-8226 (Multiple Myeloma) ([4]; 1 ug/mL) | percent inhibition, RPMI-8226 (Multiple Myeloma) ([4]; 10 ug/mL) | percent inhibition, RPMI-8226 (Multiple Myeloma) ([4]; 25 ug/mL)
CC1c2cccc(O)c2C(=O)C2=C(O)C3(O)C(=O)C(C(N)=O)=C(O)C([N+](C)(C)C)C3C(O)C21.[I-] (stereo not shown) [Compound 46, 6-deoxy-5-hydroxytetracycline-4-Methiodide] | 194 µM | 3800 µM | 42 µM | 59 µM | 90 µM | 21% | 7% | 10% | 20^B percent | +5% | +1% | 20% | 16% | 27^B percent | 7% | +11% | 12%
CC(C)CN(C)c1ccc(O)c2c1C(C)C1C(=C(O)C3(O)C(=O)C(C(N)=O)=C(O)C(N(C)C)C3C1O)C2=O (stereo not shown) [Compound 27, 7-Isobutylmethylamino-6-deoxy-5-hydroxytetracycline H2SO4] | 498 µM | 963 µM | 149 µM | 101 µM | 92 µM |  |  |  |  |  | 72^B percent and 48^B percent | 17^B percent and 9% | 35^B percent and 56^B percent | 70% | 24^B percent and 20% | 6% and 9% | 
CC1c2c(N(NC(=O)OCc3ccccc3)C(=O)OCc3ccccc3)ccc(O)c2C(=O)C2=C(O)C3(O)C(=O)C(C(N)=O)=C(O)C(N(C)C)C3C(O)C21.Cl (stereo not shown) [Compound 47, 7-(1,2-benzylcarboxyhydrazine)-6-deoxy-5-hydroxy-tetracycline HCl] | 318 µM | 117 µM | 68 µM | 88 µM | 60 µM | +30% | +4% | +2% | +17% | +16^B percent | 0% | 3% | 3% | 5% | 28% | 18% | 60^B percent
CC(=O)OC1C2C(=C(O)C3(O)C(=O)C(C(N)=O)=C(O)C(N(C)C)C13)C(=O)c1c(O)cccc1C2C (stereo not shown) [Compound 28, 6-Deoxy-5-acetoxy-tetracycline H2SO4] | > 1000 µM | > 1000 µM | 231 µM | 125 µM | 49 µM |  |  |  |  |  | 54^B percent and 45^B percent |  |  | 80% and 61% | 4% and 5% |  | 34^B percent and 62^B percent
CC(=O)N(CC(C)C)c1ccc(O)c2c1C(C)C1C(=C(O)C3(O)C(=O)C(C(N)=O)=C(O)C(N(C)C)C3C1O)C2=O.O=S(=O)(O)O (stereo not shown) [Compound 29, 7-Acetylisobutylamino-6-deoxy-5-hydroxytetracycline H2SO4] | 895 µM | 983 µM | 213 µM | 172 µM | 98 µM |  |  |  |  |  |  |  |  | 58% and 69% |  | 12% and 13% | 
